According to US20150322527A1, “TRANSCRIPTIONAL PROFILING AND BIOMARKER-BASED METHODS FOR IDENTIFYING AND EVALUATING AGENTS FOR ANTIOXIDANT EFFICACY IN COSMETIC SKIN CARE FORMULATIONS” (The Procter & Gamble Company, priority 2010, published 2015):

Tested on: Nrf2-mediated transcription off the antioxidant response element (ARE)
Assay: ARE activation assay (ARE32 luciferase reporter cell line)
Assay type: cell-based
Details: 24 hrs
Description: An ARE reporter cell line may be developed and used to screen for compounds that increase transcription off the ARE in response to oxidative stress, resulting in an increase in cellular antioxidant defense proteins. An ARE32 reporter cell line was adapted to provide an assay for cosmetic agents which may increase transcription off the ARE and increase expression of Phase 2 enzymes, thus augmenting the body's own antioxidant response. ARE32 is a stable reporter cell line produced by CXR Biosciences by transfecting MCF7 cells with pGL8x-ARE (8 copies of the rat GST ARE linked to the luciferase gene) and pCDNA3.1 which contains the neomycin selectable marker. Selection is performed in the presence of G418 and resistant clones are isolated and screened for induction of luciferase. An exemplary standard is tert-butyl hydroquinone (tBHQ), a known activator of Nrf2. ARE32 is a stable MCF7 cell line containing pGL8x-ARE (8 copies of the rat GST ARE linked to the luciferase gene) and pCDNA3.1 which contains the neomycin selectable marker, which was licensed from CXRbiosciences. Selection was performed in the presence of G418 and resistant clones were isolated. Clones were screened for induction of luciferase in response to tBHQ. ARE32 cells are maintained routinely in the DMEM (phenol red free) containing: • 10% FBS • 50 units/ml penicillin & 50 μg/ml streptomycin • 0.8 mg/ml G418 • Cells are subcultured every 3-4 days. […] Induction of Luciferase with tBHQ • 1. In a 96 well-plate, seed 1×10^4 cells/well in 100 μl DMEM containing 50 units/ml penicillin, 50 μg/ml streptomycin, 0.8 mg/ml G418 and 10% FBS. • 2. Incubate the cells at 37° C. in a 5% CO2 incubator for 24 hrs. • 3. […] (10 mM tBHQ of stock solution was freshly prepared in DMSO) • 4. Add 100 ul of media after treatment, final assay volume 200 uL. • 5. Incubate the cells at 37° C. in CO2 incubator for another 24 hrs. • 6. Assay for luciferase activity with Steady-glo Assay System by following the manufacture's instruction: • a. Remove 100 μL of media • b. Add 100 μl of reconstituted substrate directly to well • c. Incubate 5-10 min shaking. • d. […] Read plate for 5 seconds per well. The ARE activation assay described in Example 3 is employed. To test for transcription off the antioxidant response element, the reporter line is grown, compounds are added, each compound in varying doses, and allowed to incubate for 24 hours. Cells are then lysed and luminescent output is detected and quantified. […] Proposed compounds are screened using the ARE assay set forth in Example 3, above. Table 4 illustrates “ARE screening hits” along with concentrations tested for each compound and the observed percent increase in ARE. […]

Row | Compound | ARE (% control) (concentration tested 200 μM) | ARE (% control) (concentration tested 0.01%)
1 | O=C(O)CCCCC1CCSS1 (stereo not drawn) [Alpha-lipoic acid] | 534 | 
2 | O=C(/C=C/c1ccc(O)c(O)c1)O[C@H](Cc1ccc(O)c(O)c1)C(=O)O [Rosmarinic acid] | 1211 | 
3 | CCCCCC/C=C/C#CCCCCCCCC(=O)O [Xymenynic acid] | 329 | 
4 | Umbelliferin |  | 1815
